Data as given in patent publication US20110004021A1, “THIAZOLECARBOXANILIDES” (priority 2005, published 2011).

Tested on: Alternaria solani
Experiment: Activity against early blight of tomato caused by Alternaria solani
Assay type: in vivo
Conditions: tomato cultivar Goldene Königin, protective spray 4 ppm, infected next day, assessed after 5 days; untreated plants 90% infected
Description: The active compounds were prepared as a stock solution comprising 25 mg of active compound which was filled up to 10 ml with a mixture of acetone and/or dimethyl sulfoxide and the emulsifier Uniperol® EL (wetting agent having an emulsifying and dispersing action based on ethoxylated alkylphenols) in a solvent/emulsifier volume ratio of 99 to 1. The solution was then made up to 100 ml with water. This stock solution was diluted with the solvent/emulsifier/water mixture described to the active compound concentration given below.
Leaves of potted plants of the cultivar “Goldene Königin” were sprayed to runoff point with an aqueous suspension having the concentration of active compounds stated below. The next day, the leaves were infected with an aqueous spore suspension of Alternaria solani in 2% biomalt solution having a density of 0.12×10^6 spores/ml. The plants were then placed in a water-vapor-saturated chamber at temperatures of between 20 and 22° C. After 5 days, the infection on the untreated, but infected control plants had developed to such an extent that the infection could be determined visually in %.

| Compound | infection |
| --- | --- |
| Cc1nc(C(F)(F)F)c(C(=O)Nc2ccccc2-c2ccc(F)c(F)c2)s1 | 20% |
| Cc1nc(C(F)(F)F)c(C(=O)Nc2ccccc2-c2cc(F)c(F)c(F)c2)s1 [I.1, N-(3′,4′,5′-Trifluorobiphenyl-2-yl)-2-methyl-4-trifluoromethylthiazole-5-carboxamide] | at most 7% |
